Experimental data taken from patent publication US20220348876A1, “METABOLISM GUIDES DEFINITIVE LINEAGE SPECIFICATION DURING ENDOTHELIAL TO HEMATOPOIETIC TRANSITION” (Amniotics AB, priority 2019, published 2022).

Assays:
HE cells [1] = assay: confocal imaging: filipin III and histone acetylation staining; assay type: cell-based, human; conditions: day 2, DCA-treated HE cells
Protocol: For TMRE staining, on day 3 of subculture, half of the culture medium was removed and cells were stained with 20 nM TMRE (Thermo Fisher Scientific, T669) by direct addition into the culture medium of a 2× concentrated solution. After a 20-minute incubation at 37° C., wells were carefully washed with PBS and fresh HE medium was added. During acquisition, cells were kept in a humidified incubator at 37° C., 5% CO2, 20% O2. For immunocytochemistry, subculture day 2 HE cells (plated on coverslips) were washed twice in PBS, fixed with 4% PFA for 15 minutes at RT and washed three times with PBS. For filipin staining, fixed cells were incubated with 100 μg/ml filipin III (Sigma-Aldrich, F4767) for 1 hour, washed three times with PBS and rinsed with distilled water before mounting with PVA/DABCO. […] Intensity quantification was performed using the Fiji software as follows. For TMRE, using the brightfield channel, ROIs were selected for 5 spindle-shaped and 5 round cells (randomly chosen) and average intensity for each ROI was calculated in a summatory Z-stack of the TMRE channel. For filipin and acetylation, the summatory Z-stack for the filipin channel was obtained and average intensity calculated. A total of 2-3 independent experiments with 2-3 replicate wells were quantified. […]

NSG mice = NSG mice transplantation of DCA-treated HE cells; assay type: in vivo; conditions: week 8; text does not separate DCA from control
Protocol: Sorted human HE cells (350,000) were mixed with OP9-DL1 stroma (60,000) and subcultured for 3 days with or without DCA (3 mM) on Matrigel (16 μg/cm^2, Corning)-coated 12-well plates in HE medium^30. Between 100,000-150,000 cells from control or DCA samples were transplanted into sub-lethally irradiated (300 cGy) 8-week-old female NOD/Cg-Prkdc^scid Il2rg^tm1Wjl/SzJ mice (NSG, The Jackson Laboratory) together with 20,000 whole bone marrow support cells from C57Bl/6.SJL mice (CD45.1+/CD45.2+, in house breeding). Cells were transplanted in single cell solution in 250 μL PBS with 2% FBS through intravenous tail vein injection. Drinking water of transplanted NSG mice was supplemented with ciprofloxacin (125 mg/L, HEXAL) for 3 weeks after transplantation to prevent infection. Mice were housed in a controlled environment with 12-hour light-dark cycles with chow and water provided ad libitum. Experiments and animal care were performed in accordance with the Lund University Animal Ethical Committee.
Peripheral blood (PB) was collected from the tail vein into EDTA-coated microvette tubes (Sarstedt, Cat #20.1341.100). […]
Bone marrow was analyzed at the 12-week transplantation endpoint. […]

EHT cells = assay: EHT cell subculture with compounds, flow cytometry; assay type: cell-based, human; conditions: deriving from EHT cells, day 6; UK5099 10 μM
Excerpt: The RB9-CB1 human iPSC line was co-cultured with mouse embryonic fibroblasts (MEFs, Millipore), passaged every six days and processed to form embryoid bodies (EBs) as described previously (Guibentif, C. et al. Cell Reports 19, 10-19 (2017)). The differentiation protocol used in this study was previously described (Ditadi, A. & Sturgeon, C. M. Methods 101, 65-72 (2016)), however, small modifications were made to induce both primitive and definitive hematopoiesis, as indicated below and in FIG. 7, a. Newly-formed EBs were first kept in SFD medium supplemented with 1 ng/ml Activin A (on days 0-2) and 3 μM CHIR99021 (on day 2 only). At day 3, media was switched to “Day 3-SP34” medium supplemented with 1 ng/ml Activin A (on day 3 only) and 3 μM CHIR99021 (on day 3 only) until day 6. On day 6, media was replaced by “Day 6-SP34” medium, until day 8. […]
To measure proliferation, cells were processed with the CellTrace Violet (CTV) kit according to manufacturer's instructions (10-minute incubation) and fluorescence was measured on a BD LSRFortessa. […] Flow cytometry outputs were analyzed on FlowJo Software, with initial gatings on SSC-A/FSC-A, FSC-H/FSC-A, SSC-H/SSC-A and 7-AAD to exclude doublets and dead cells in all experiments.

HE cells [2] = assay: Lymphoid differentiation assay on OP9-DL1 stroma; assay type: cell-based, human; conditions: 3-day subculture with UK5099 10 μM or DCA 3 mM, then 35-day co-culture, vs untreated
Protocol: Subculture day 3 HE cells cultured in the presence of UK5099 (10 μM), DCA (3 mM), or in glutamine-free medium with DMK (1.75 mM), nucleosides (1×) or NEAAs (1×), as indicated, were collected after a 2-minute incubation at 37° C. with StemPro Accutase Cell Dissociation Reagent and seeded onto 80% confluent OP9-DL1 stroma. Cells were cultured in OP9 medium with SCF (10 ng/ml), FLT3-L (10 ng/ml), IL-2 (5 ng/ml), IL-7 (5 ng/ml, first 15 days only) and IL-15 (10 ng/ml) with passaging onto new OP9-DL1 stroma every week, as described previously (Renoux, V. M. et al. Immunity 43, 394-407 (2015)). At day 35 of co-culture, cells were analyzed on a BD LSRFortessa.

Compound | increase in cholesterol content (HE cells [1]) | engraftment: human CD45+ cells in the peripheral blood (NSG mice) | decrease in the CD43+CD45+ population (EHT cells) | NK cell differentiation (CD45+CD56+) (HE cells [2])
O=C(O)C(Cl)Cl [DCA, dichloroacetate] | 8% | around 1% | – | –
N#C/C(=C\c1cn(-c2ccccc2)c2ccccc12)C(=O)O [UK5099] | – | – | 2 -fold | impaired NK cell formation
